Assay results taken from PubChem BioAssay AID540261 (Sanford-Burnham Center for Chemical Genomics, 2011).
Activity calls are given as the source filed them.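 The calls were made as follows: active = compounds whose average half-maximal inhibitory concentration on the enzyme falls below 100 micromolar; inactive = the rest.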

biological target: Alkaline phosphatase, tissue-nonspecific isozyme (Homo sapiens) (UniProt P05186); assay: human TNAP enzyme inhibitors, SAR follow-up, selectivity assay for human IAP inhibitor project, biochemical, set 2, CDP-Star luminescence (AID 540261); conditions: purified human TNAP, 30 min
Sequence (P05186 whole entry, looked up): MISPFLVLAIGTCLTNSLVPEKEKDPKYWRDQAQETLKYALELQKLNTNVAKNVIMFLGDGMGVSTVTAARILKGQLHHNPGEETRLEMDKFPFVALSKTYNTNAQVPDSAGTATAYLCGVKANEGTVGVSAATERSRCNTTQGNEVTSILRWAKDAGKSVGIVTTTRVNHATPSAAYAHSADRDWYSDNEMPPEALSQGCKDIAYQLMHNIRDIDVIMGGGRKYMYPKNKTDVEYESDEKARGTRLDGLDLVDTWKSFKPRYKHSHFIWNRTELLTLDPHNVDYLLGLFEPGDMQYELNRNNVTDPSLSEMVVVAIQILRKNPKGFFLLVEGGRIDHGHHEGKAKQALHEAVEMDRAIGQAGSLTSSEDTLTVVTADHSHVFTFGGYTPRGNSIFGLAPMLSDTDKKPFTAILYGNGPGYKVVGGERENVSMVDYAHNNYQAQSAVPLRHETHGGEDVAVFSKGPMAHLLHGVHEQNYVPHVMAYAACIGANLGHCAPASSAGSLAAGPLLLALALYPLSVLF

Question: Which IC50 does the source give for O=C(CNS(=O)(=O)c1ccc2[nH]c(=O)oc2c1)NCc1ccc2c(c1)OCO2 here?
Answer: > 100 µM (inactive)

Question: How did the IC50 turn out when O=C(CNS(=O)(=O)c1ccc2[nH]c(=O)oc2c1)Nc1ccc2c(c1)OCO2 was run?
Answer: > 100 µM (inactive)

Question: N#Cc1ccc(CNC(=O)CCNS(=O)(=O)c2ccc3[nH]c(=O)oc3c2)cc1 was tested. Which IC50 did it give?
Answer: > 100 µM (inactive)

Question: COc1ccc(NC(=O)CNS(=O)(=O)c2ccc3[nH]c(=O)oc3c2)cc1OC was tested. Which IC50 did it give?
Answer: > 100 µM (inactive)

Question: Which IC50 does the source give for Cc1ccc(C)c(NC(=O)CCNS(=O)(=O)c2ccc3[nH]c(=O)oc3c2)c1 here?
Answer: > 100 µM (inactive)
